# According to paper PMC9120017, “Inhibition mechanism of the chloride channel TMEM16A by the pore blocker 1PBC” (Nature Communications, 2022):
# Where two headings read alike, the source gives them in different places.
# Target: T1, mouse TMEM16A mutant T539A (Mus musculus, UniProt Q8BHY3, T539A)
# T1 construct: expressed in transfected cells; host or cells: HEK293T
# T1 sequence (Q8BHY3 1-960 T539A): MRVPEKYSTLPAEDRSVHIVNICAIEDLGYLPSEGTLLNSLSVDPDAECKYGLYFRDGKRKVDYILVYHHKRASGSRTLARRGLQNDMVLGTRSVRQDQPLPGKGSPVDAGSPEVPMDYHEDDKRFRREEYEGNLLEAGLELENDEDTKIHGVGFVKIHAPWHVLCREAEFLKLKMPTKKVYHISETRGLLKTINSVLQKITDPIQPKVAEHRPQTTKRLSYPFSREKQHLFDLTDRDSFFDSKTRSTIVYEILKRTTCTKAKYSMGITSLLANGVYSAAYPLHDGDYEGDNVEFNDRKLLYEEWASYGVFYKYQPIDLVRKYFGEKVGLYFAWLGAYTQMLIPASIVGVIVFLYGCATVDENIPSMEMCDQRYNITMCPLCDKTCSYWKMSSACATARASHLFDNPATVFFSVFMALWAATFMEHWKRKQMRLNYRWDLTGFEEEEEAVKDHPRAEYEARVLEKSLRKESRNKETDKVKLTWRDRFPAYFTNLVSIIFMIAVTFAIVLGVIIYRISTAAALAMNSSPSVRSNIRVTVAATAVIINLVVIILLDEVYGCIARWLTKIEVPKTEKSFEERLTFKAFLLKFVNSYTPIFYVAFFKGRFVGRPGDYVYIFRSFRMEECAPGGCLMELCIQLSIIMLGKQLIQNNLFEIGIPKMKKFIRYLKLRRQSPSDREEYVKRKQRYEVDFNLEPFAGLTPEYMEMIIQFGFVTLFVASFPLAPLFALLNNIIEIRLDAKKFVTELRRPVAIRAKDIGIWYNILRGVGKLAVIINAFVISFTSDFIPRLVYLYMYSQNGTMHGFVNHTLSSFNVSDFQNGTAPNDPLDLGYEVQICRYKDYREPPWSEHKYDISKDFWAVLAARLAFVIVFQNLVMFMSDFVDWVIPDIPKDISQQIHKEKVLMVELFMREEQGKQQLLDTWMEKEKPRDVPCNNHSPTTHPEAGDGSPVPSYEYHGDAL
# Assay: Inside-out patch recording of 1PBC block, mutant T539A
# Format: cell-based
# Conditions: for remaining activity at 30 µM: 1PBC 30; for remaining activity at 30 µM / remaining activity at 100 µM: read-out: fraction of unblocked current; for remaining activity at 100 µM: 1PBC 100
# Description: HEK293T cells (ATCC CRL-1573) were maintained in Dulbecco’s modified Eagle’s medium (DMEM; Sigma-Aldrich) supplemented with 10 U ml^−1 penicillin, 0.1 mg ml^−1 streptomycin (Sigma-Aldrich), 2 mM L-glutamine (Sigma-Aldrich), and 10% FBS (Sigma-Aldrich) in a humidified atmosphere containing 5% CO2 at 37 °C. HEK293S GnTI^− cells (ATCC CRL-3022) were maintained in HyClone HyCell TransFx-H medium (GE Healthcare) supplemented with 10 U ml^−1 penicillin, 0.1 mg ml^−1 streptomycin, 4 mM L-glutamine, 0.15% poloxamer 188 (Sigma-Aldrich), and 1% FBS in an atmosphere containing 5% CO2 at 185 rpm at 37 °C. The ac splice variant of mouse TMEM16A (UniProt ID: Q8BHY3), mouse TMEM16B (UniProt ID: Q8CFW1), or mouse TMEM16F (UniProt ID: Q6P9J9) bearing a 3C cleavage site, a Venus YFP, a Myc tag, and a Streptavidin-binding peptide (SBP) downstream of the open reading frame in a modified pcDNA3.1 vector (Invitrogen) were used as described previously[21],[31]. Mutations were introduced using a modified QuikChange method[58] and were verified by sequencing.
# HEK293T cells were transfected with 3–4 μg DNA per 6 cm Petri dish using the calcium phosphate co-precipitation method and were used within 24–96 h after transfection. Recordings were performed on inside-out patches excised from HEK293T cells expressing the construct of interest. Patch pipettes were pulled from borosilicate glass capillaries (O.D. 1.5 mm, I.D. 0.86 mm, Sutter Instrument) and were fire-polished with a microforge (Narishige) before use. Pipette resistance was typically 3–8 MΩ when filled with the recording solutions detailed below. Seal resistance was typically 4 GΩ or higher. Voltage-clamp recordings were made using Axopatch 200B, Digidata 1550, and Clampex 10.7 (Molecular Devices). Analog signals were filtered with the in-built 4-pole Bessel filter at 10 kHz and were digitized at 20 kHz. Solution exchange was achieved using a gravity-fed system through a theta glass pipette mounted on an ultra-fast piezo-driven stepper (Siskiyou). […] All recordings were performed at 20 °C.
# A symmetrical ionic condition was used throughout. Stock solution with Ca^2+-EGTA contained 150 mM NaCl, 5.99 mM Ca(OH)2, 5 mM EGTA, and 10 mM HEPES at pH 7.40. Stock solution with EGTA contained 150 mM NaCl, 5 mM EGTA, and 10 mM HEPES at pH 7.40. Free Ca^2+ concentrations were adjusted by mixing the stock solutions at the required ratios calculated using the WEBMAXC program (http://web.stanford.edu/~cpatton/webmaxcS.htm). Patch pipettes were filled with the stock solution with Ca^2+-EGTA, which has a free Ca^2+ concentration of 1 mM. 1PBC (ChemBridge) stock was reconstituted in anhydrous DMSO (Sigma-Aldrich) at 100 mM and stored at −20 °C. Working solutions with 1PBC were prepared by serial dilution. Unless otherwise stated, experiments were performed at a saturating Ca^2+ concentration as shown in Supplementary Table 1 and the primary data were corrected for current rundown as described previously[21],[25].
# Concentration-response relations, obtained from the ratio of the I-V plots before and after the application of the blocker, were fitted to the Hill equation,1 I/Imax=1/1+IC50/[blocker]^h where I/Imax is the normalized current responses, IC50 defines the concentration at which inhibition is at its half-maximum, and h is the Hill coefficient.
smiles,measurement,setting,value
N#Cc1c(C(F)(F)F)cc(O)n2c1nc1ccccc12 [1PBC],remaining activity at 30 µM,-60 mV,46.1%
same,remaining activity at 30 µM,-80 mV,49.4%
same,remaining activity at 30 µM,-100 mV,53.7%
same,remaining activity at 30 µM,-120 mV,55.9%
same,remaining activity at 30 µM,-140 mV,58.7%
same,remaining activity at 100 µM,0 mV,14.3%
same,remaining activity at 100 µM,20 mV,11.9%
same,remaining activity at 100 µM,40 mV,11.3%
same,remaining activity at 100 µM,60 mV,10%
same,remaining activity at 100 µM,80 mV,8.95%
same,remaining activity at 100 µM,100 mV,7.58%
same,remaining activity at 100 µM,120 mV,8.07%
same,remaining activity at 100 µM,140 mV,8.23%
same,remaining activity at 100 µM,-20 mV,16.6%
same,remaining activity at 100 µM,-40 mV,18.5%
same,remaining activity at 100 µM,-60 mV,21.3%
same,remaining activity at 100 µM,-80 mV,25%
same,remaining activity at 100 µM,-100 mV,28.2%
same,remaining activity at 100 µM,-120 mV,30.6%
same,remaining activity at 100 µM,-140 mV,34%
same,IC50,"20 mV, 2 µM Ca2+",12.9 µM
same,IC50,"40 mV, 2 µM Ca2+",11 µM
same,IC50,"60 mV, 2 µM Ca2+",9.86 µM
same,log-fold IC50 (change of mutant vs WT),80 mV,0.6239
same,IC50,"80 mV, 2 µM Ca2+",9.02 µM
same,IC50,"100 mV, 2 µM Ca2+",8.74 µM
same,IC50,"120 mV, 2 µM Ca2+",8.83 µM
same,IC50,"140 mV, 2 µM Ca2+",9.45 µM
same,IC50,"-20 mV, 2 µM Ca2+",17.3 µM
same,IC50,"-40 mV, 2 µM Ca2+",20.5 µM
same,IC50,"-60 mV, 2 µM Ca2+",24.4 µM
same,IC50,"-80 mV, 2 µM Ca2+",28.9 µM
same,IC50,"-100 mV, 2 µM Ca2+",34.3 µM
same,IC50,"-120 mV, 2 µM Ca2+",38.6 µM
same,IC50,"-140 mV, 2 µM Ca2+",44.4 µM
same,IC50,"T539A, V 0 mV",14.9 µM
same,IC50,"T539A, V 20 mV",12.9 µM
same,IC50,"T539A, V 40 mV",11 µM
same,IC50,"T539A, V 60 mV",9.86 µM
same,IC50,"T539A, V 80 mV",9.02 µM
same,IC50,"T539A, V 100 mV",8.74 µM
same,IC50,"T539A, V 120 mV",8.83 µM
same,IC50,"T539A, V 140 mV",9.45 µM
same,IC50,"T539A, V -20 mV",17.3 µM
same,IC50,"T539A, V -40 mV",20.5 µM
same,IC50,"T539A, V -60 mV",24.4 µM
same,IC50,"T539A, V -80 mV",28.9 µM
same,IC50,"T539A, V -100 mV",34.3 µM
same,IC50,"T539A, V -120 mV",38.6 µM
same,IC50,"T539A, V -140 mV",44.4 µM
